Experimental data published in patent publication US11457631B2, “Antimicrobial compounds and methods of use” (AEQUOR, INC., priority 2016, dated 2022).

How the values were obtained:
Format in all cases: cell-based, Staphylococcus aureus
[1] = test system: S. aureus ATCC 25923; test: Minimum Inhibitory Concentration (MIC), CLSI M07-A9 modified for 96 well plates, planktonic bacteria; details: overnight incubation
Method: (§1) Antibacterial and antibiofilm assay were performed on human pathogens and industrial microorganisms associated with contamination: Staphylococcus aureus (ATCC 25923 and ATCC 12600), S. epidermidis (ATCC 12228 and ATCC 14990), Pseudomonas aeruginosa (ATCC 27853), E. coli (ATCC 25922), C. albicans ATCC 18804), oral flora bacteria Streptococcus mutans (ATCC 25175) and S. gordonii (ATCC 33399), and/or marine biofilm former Cobetia marina (ATCC 25374).
(§2) Antibacterial assays were performed on planktonic bacteria to determine the Minimum Inhibitory Concentrations (MICs) and Minimum Bactericidal Concentrations (MBCs) for the compounds. MICs are defined as the lowest concentration of an antimicrobial that will inhibit the visible growth of a microorganism after overnight incubation. The MICs were determined using the standard CLSI Method M07-A9 for Dilution Antimicrobial Susceptibility Tests for Bacteria That Grow Aerobically modified for 96 well plates. MBCs are the lowest concentration of antimicrobial that kill the organism. MBCs were determined using the standard CLSI Method M26-A for Determining Bactericidal Activity of Antimicrobial Agents modified for 96 well plates.
(§3) A selection of the compounds were used in the above assays against S. aureus (ATCC 25923).

[2] = test system: S. aureus ATCC 25923; test: Minimum Bactericidal Concentration (MBC), CLSI M26-A modified for 96 well plates; details: planktonic
Method: as §1, §2, §3

[3] = test system: S. aureus ATCC 25923; test: Minimum Biofilm Inhibition Concentration (MBIC), 96-well microplate static biofilm assay
Method: as §1
Antibiofilm assays were performed to determine the prevention and removal of biofilm. The 96-well microplate assay was used to determine the Minimum Biofilm Inhibition Concentration (MBIC) (Merritt, et al. 2005. Growing and analyzing static biofilms. Curr Protoc Microbiol. Chapter 1, Unit 1.)
The MBIC assay is defined as the lowest concentration of the compound that will inhibit the biofilm. The ASTM E2799-12 Standard Test Method for Testing Pseudomonas Biofilm using the Minimum Biofilm Eradicating Concentration (MBEC) assay was used to determine biofilm removal. The MBEC assay is defined as the lowest concentration of compound that will eradicate the biofilm. The qualitative MBEC is determined using a microplate reader at absorbance 630 nm and the quantitative MBEC is determined using log10 reduction.
as §3

[4] = test system: S. aureus ATCC 25923; test: Minimum Biofilm Eradicating Concentration (MBEC) assay, ASTM E2799-12; details: biofilm eradication
Method: Antibacterial and antibiofilm assay were performed on human pathogens and industrial microorganisms associated with contamination: Staphylococcus aureus (ATCC 25923 and ATCC 12600), S. epidermidis (ATCC 12228 and ATCC 14990), Pseudomonas aeruginosa (ATCC 27853), E. coli (ATCC 25922), C. albicans ATCC 18804), oral flora bacteria Streptococcus mutans (ATCC 25175) and S. gordonii (ATCC 33399), and/or marine biofilm former Cobetia marina (ATCC 25374). The MBIC assay is defined as the lowest concentration of the compound that will inhibit the biofilm. The ASTM […]-12 Standard Test Method for Testing Pseudomonas Biofilm using the Minimum Biofilm Eradicating Concentration (MBEC) assay was used to determine biofilm removal. The MBEC assay is defined as the lowest concentration of compound that will eradicate the biofilm. The qualitative MBEC is determined using a microplate reader at absorbance 630 nm and the quantitative MBEC is determined using log10 reduction. A selection of the compounds were used in the above assays against S. aureus (ATCC 25923).

CCCCNP(=O)(O)OC(C)=O [X is NH2; A is (CH2)3CH3, acetic (1-butyl phosphoramidic) anhydride]
0.25 % w/v: MIC [1] | MBC [2] | MBIC [3] | MBEC [4]
